Blank lines part the entries; values can stand above or below the compound they belong to.
Legend:
[1] = target: T1, mineralocorticoid receptors (Homo sapiens, UniProt P08235); assay: Assay for in-vitro antagonistic activity against mineralocorticoid receptors (Gal4-MR LBD luciferase reporter in HEK293T cells, 1 nM aldosterone); format: cell-based
T1 construct: expressed in transfected cells; host or cells: HEK293T
T1 sequence (P08235 726-964 limits assumed): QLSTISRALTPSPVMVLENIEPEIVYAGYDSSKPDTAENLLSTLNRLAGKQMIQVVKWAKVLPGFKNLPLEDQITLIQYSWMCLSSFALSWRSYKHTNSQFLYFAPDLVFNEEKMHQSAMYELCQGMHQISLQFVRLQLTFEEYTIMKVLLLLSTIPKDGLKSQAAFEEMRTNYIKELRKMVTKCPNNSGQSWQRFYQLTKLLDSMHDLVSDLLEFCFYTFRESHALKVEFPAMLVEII
Text: In in-vitro activity assays of compounds in the disclosure, the characteristic of luciferase binding to the substrate to cause a chemiluminescence reaction can be utilized to transfect human embryonic kidney cells (HEK293T) with a plasmid comprising the mineralocorticoid receptor ligand binding domain (LBD) and fused with the Gal4 DNA-binding domain (DBD) and a firefly luciferase reporter gene plasmid under the control of Gal4 UAS (upstream activation sequence). The influence of the presence of stimulation or different stimuli on mineralocorticoid receptor activity is judged by the level of firefly luciferase activity.
Test Example 1: Assay for In-Vitro Antagonistic Activity Against Mineralocorticoid Receptors
All the compounds to be tested were serially diluted 3-fold from 10 mM with DMSO (Sigma, D8418), and 10 concentrations were obtained for each of the compounds.
The reference compound eplerenone was serially diluted 3-fold with DMSO to form 10 concentrations.
A 1000× positive control (10 mM eplerenone) and a 1000× negative control (100% DMSO) were prepared.
• 2.1. All cells were cultured as recommended by ATCC. HEK293T cells were passaged and plated when in the exponential growth phase. • 2.2. The old culture medium in the cell culture flask was discarded, and the cells were washed with PBS. • 2.3. A proper amount of TrypLE solution was added to the culture flask to digest the cells to separate them, and the digestion was stopped with a serum-containing complete culture medium. • 2.4. The cell suspension was centrifuged to make the cells settle. The cells were washed with PBS 2 times to remove phenol red and were then suspended with culture medium to a proper concentration (only cells with a survival rate of greater than 90% were used in the subsequent experiments). • 2.5. 6×10^6 HEK293T cells were spread on a 100 mm Petri dish and incubated in a 37° C., 5% CO2 incubator for 16 h. • 2.6. The cells were transfected with plasmids and then incubated in a 37° C., 5% CO2 incubator for another 5-6 h. • 2.7. 25 nL of compound dilution was transferred to a 384-well assay plate using Echo655. • 2.8. HEK293T cells were plated at a concentration of 17,000 cells/well in a 384-well plate, and meanwhile 1 nM aldosterone was added to each well. • 2.9. The cells were incubated in a 37° C., 5% CO2 incubator for 18-20 h. • 2.10. 25 μL of britelite+luciferase assay reagent was added to each well of the 384-well assay plate, and luminescence values were recorded on an Envision 2105 plate reader. • 2.11. The IC50 values of the compounds were obtained using the software Graphad 8.0 and a non-linear fitting equation.

[2] = tested on: db/db mice (idiopathic type II diabetes model mice); assay: Efficacy test with db/db mouse model of diabetic nephropathy; format: in vivo; conditions: for mALB compared to the model control group / urine albumin-to-creatinine ratio (UACR) compared to the model control group / urine amount compared to the model control group: after 4 weeks of administration, in words; for UACR / Urine creatinine / Urine weight / mALB: Mean±SEM
Protocol: Test Example 3: Efficacy Test with db/db Mouse Model of Diabetic Nephropathy
Proper amounts of compound 2-2 and finerenone were taken and separately mixed with a 0.5% hydroxyethyl cellulose solution (Tylose MH300) to form suspensions.
30 db/db mice (idiopathic type II diabetes model mice) were selected and divided into a model control group, a positive control group, and an administration group, and 10 db/m mice were selected as a control group.
The mice were dosed by oral gavage (i.g) once daily over 4 consecutive weeks. The dosing regimen is shown in detail in Table 4.
Urine albumin was used as a main measure. The data obtained were analyzed statistically using EXCEL and IBM SPSS Statistics 22.0.
All metrology data are expressed as Mean±SEM s. The parameters before and after dosing were plotted for the different groups of animals using the software Graph Pad Prism 8. Data were analyzed using the statistical software SPSS 22.0. A Levene's test of homogeneity of variance was performed on the parameters. When the variance was homogenous (P≥0.05), the Dunnett's & LSD method from the one-way analysis of variance (ANOVA) was used to compare the differences between the groups. When the variance was not homogenous (P<0.05), the Mann-Whitney U test (the M-W method) from the Kruskal-Wallis H test (the K-W method) was used to compare the differences between the groups. For animal survival, the log-rank test from the product-limit method (the K-M method) was used to compare the differences between the groups.

[3] = Human liver microsome metabolism study; format: in vitro ADME; conditions: human liver microsomes
Protocol: Test Example 2: Human Liver Microsome Metabolism Study
222.5 μL of human liver microsomes (protein concentration: 1 mg/mL) and 25 μL of NADPH ([…]) were added to an incubation plate and pre-heated for 10 min. 2.5 μL of control compound and test compound (100 μM) were added.
30-μL aliquots were taken from the reaction solution at 0.5, 5, 10, 15, 20, and 30 min. The reaction was stopped by adding 5 volumes of cold acetonitrile containing IS (100 nM alprazolam, 200 nM caffeine, and 100 nM tolbutamide). The reaction solution was centrifuged, and 100 μL of the supernatant was collected and mixed with 100 μL of ultrapure H2O before analysis by LC-MS/MS.
The slope value k was determined by linear regression of the natural logarithm of a curve of the parent drug remaining percentage versus incubation time.
The in-vitro half-life (in-vitro T1/2) was determined by the slope value:
Using the following equation (the average of repeated measurements), the in-vitro T½ (min) was converted to in-vitro intrinsic clearance (in-vitro CLint, in μL/min/mg protein): […]

[4] = 15 mg/kg i.g. once daily, 4 weeks

Structure (SMILES): COc1cc(C#N)ccc1C1C(C(N)=O)=C(C)Nc2c(C)cnc(OCCSC)c21 (centres unmarked) [Compound 1]
IC50 [1]: 16 nM

Structure (SMILES): [2H]C([2H])([2H])C([2H])([2H])Oc1ncc(C)c2c1C(c1ccc(C#N)cc1OC)C(C(N)=O)=C(C)N2 (centres unmarked) [Compound 3]
IC50 [1]: 17 nM

Structure (SMILES): [2H]C([2H])([2H])Oc1cc(C#N)ccc1C1C(C(N)=O)=C(C)Nc2c(C)cnc(OCC)c21 (centres unmarked) [Compound 2]
mALB compared to the model control group [2]: tended to be lower than those in the model control group | urine albumin-to-creatinine ratio (UACR) compared to the model control group [2]: statistically significantly smaller than that of the mice in the model control group (P<0.01) | urine amount compared to the model control group [2]: tended to be lower than those in the model control group | IC50 [1]: 7 nM

Second part, led by results:

IC50 [1]: 10 nM
Structure (SMILES): CCOc1ncc(C)c2c1C(c1cc(C)c(C#N)cc1OC)C(C(N)=O)=C(C)N2 (centres unmarked) [Compound 6]

IC50 [1]: 11 nM
Structure (SMILES): CCOc1ncc(Cl)c2c1C(c1ccc(C#N)cc1OC)C(C(N)=O)=C(C)N2 (centres unmarked) [Compound 4]

IC50 [1]: 5 nM
Structure (SMILES): CCOc1nc(Cl)cc2c1C(c1ccc(C#N)cc1OC)C(C(N)=O)=C(C)N2 (centres unmarked) [Compound 5]

Remaining amount % ([3]; 0.5 min): 100.00% | Remaining amount % ([3]; 5 min): 67.31% | Remaining amount % ([3]; 10 min): 42.44% | Remaining amount % ([3]; 15 min): 24.78% | Remaining amount % ([3]; 20 min): 16.62% | Remaining amount % ([3]; 30 min): 7.44% | half-life at 1 μM ([3]; in-vitro half-life): 7.4 min | microsomal CLint at 1 μM ([3]; in-vitro intrinsic clearance): 93.7 µL/min/mg | IC50 [1]: 13 nM
Structure (SMILES): CCOc1ncc(C)c2c1[C@H](c1ccc(C#N)cc1OC)C(C(N)=O)=C(C)N2 [Finerenone]
UACR ([2]; 0 weeks (before dosing)): 5538.19 µg/mg | Urine creatinine ([2]; 0 weeks (before dosing)): 0.37 μmol/24 h | Urine weight ([2]; 0 weeks (before dosing)): 2.86 mL | mALB ([2]; 0 weeks (before dosing)): 226.68 μg/24 h | UACR [2, 4]: 4294.14 µg/mg | Urine creatinine [2, 4]: 2.11 μmol/24 h | Urine weight [2, 4]: 11.96 mL | mALB [2, 4]: 1,013.76 μg/24 h | mALB compared to the model control group [2]: tended to be lower than those in the model control group | urine albumin-to-creatinine ratio (UACR) compared to the model control group [2]: decreased somewhat but is not significantly different from that of the mice in the model group | urine amount compared to the model control group [2]: tended to be lower than those in the model control group
